In one assay the target is T1, AKT1 WT (Homo sapiens, UniProt P31749).
T1 construct: expressed in transfected cells; host or cells: HEK293
Nature of the assay: Live cell AKT1 WT target engagement by NanoBRET competitive probe displacement in HEK293 cells. The note with it: 2 h at 37° C., read-out: AKT1 WT IC50. Type of assay: binding. (In general: In BRET a luciferase serves as donor, and the signal depends on an acceptor being close.)

Assay [1] has as its system LAPC4 prostate cancer cells, which express the AKT1 E17K allele. In words: Antiproliferative effects in LAPC4 cells (CellTiter Glo, 72 h). Type of assay: cell-based. The note with it: Homo sapiens, LAPC4, 72 h, read-out: LAPC4 proliferation IC50. As to the method: Antiproliferative Effects in LAPC4 Cells.
LAPC4 prostate cancer cells (Klein, K. A. et al. Nat Med 1997, 3, 402-408), which express the AKT1 E17K allele, were grown in IMDM media (Hyclone) supplemented with 12% FBS+1% P/S. To assess compound effects on growth, 1,000 cells/well were seeded in 384 well assay plates, incubated with compound dilutions dissolved in DMSO. After 72 h, intracellular ATP content was assessed with CellTiter Glo reagent (Promega) according to the manufacturer's instructions. IC50 values were calculated by fitting luminescence values to a log(inhibitor) vs. response Hill equation.
For orientation: Cellular ATP, detected with luciferase, serves as a proxy for viable cell number.

The next assay addresses T2, AKT1 E17K (Homo sapiens, UniProt P31749, E17K).
T2 construct: expressed in transfected cells; host or cells: HEK293
Nature of the assay: Live cell AKT1 E17K target engagement by NanoBRET competitive probe displacement in HEK293 cells. Type of assay: binding. The note with it: 2 h at 37° C. As to the method:
Determining live cell AKT1 E17K, AKT1 WT, and AKT2 target engagement by NanoBRET competitive probe displacement. Live cell target engagement assays were performed as described (Vasta, J. D. et al. Cell Chem Biol 2018, 25(11), 206-214). Briefly, HEK293 cells were transfected with plasmids encoding kinase-NanoLuciferase fusion proteins overnight. Cells were then treated with serial dilutions of compound and an ˜EC50 concentration of fluorescently-tagged ATP-competitive tracer (Promega). After incubation for 2 h at 37° C., luciferase substrate and extracellular luciferase inhibitor were added to all wells, and luminescent intensity at 460 nm and 600 nm were measured on a multimode plate-reader. The ratio of E600/E460 was calculated to give the tracer engagement signal (BRET). IC50 values were calculated by fitting BRET values to a log(inhibitor) vs. response Hill equation.

The next assay concerns the target T3, AKT2 (Homo sapiens, UniProt P31751).
T3 construct: expressed in transfected cells; host or cells: HEK293
Nature of the assay: Live cell AKT2 target engagement by NanoBRET competitive probe displacement in HEK293 cells. Type of assay: binding. Particulars: 2 h at 37° C., read-out: AKT2 IC50.

Where [2] appears, read: NanoBRET live cell target engagement, HEK293 cells.
[3] abbreviates: NanoBRET competitive probe displacement, live HEK293 cells.

Where two headings read alike, the source gives them in different places. Where only a bound is given, the exact number is not on record here.

T2 sequence (P31749 whole entry E17K): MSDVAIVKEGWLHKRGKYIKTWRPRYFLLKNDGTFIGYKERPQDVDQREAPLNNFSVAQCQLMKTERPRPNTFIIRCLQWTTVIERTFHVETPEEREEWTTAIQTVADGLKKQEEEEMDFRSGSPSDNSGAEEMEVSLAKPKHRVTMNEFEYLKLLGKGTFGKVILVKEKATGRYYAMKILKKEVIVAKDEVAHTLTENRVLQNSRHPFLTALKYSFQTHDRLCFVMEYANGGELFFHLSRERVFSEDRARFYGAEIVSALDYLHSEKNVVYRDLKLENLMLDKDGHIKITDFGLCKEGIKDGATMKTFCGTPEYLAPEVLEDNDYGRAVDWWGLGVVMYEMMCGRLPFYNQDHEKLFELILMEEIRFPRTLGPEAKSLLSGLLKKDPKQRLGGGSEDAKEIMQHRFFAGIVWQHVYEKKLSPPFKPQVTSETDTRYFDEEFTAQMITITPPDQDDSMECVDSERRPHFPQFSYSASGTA
T3 sequence (P31751 whole entry): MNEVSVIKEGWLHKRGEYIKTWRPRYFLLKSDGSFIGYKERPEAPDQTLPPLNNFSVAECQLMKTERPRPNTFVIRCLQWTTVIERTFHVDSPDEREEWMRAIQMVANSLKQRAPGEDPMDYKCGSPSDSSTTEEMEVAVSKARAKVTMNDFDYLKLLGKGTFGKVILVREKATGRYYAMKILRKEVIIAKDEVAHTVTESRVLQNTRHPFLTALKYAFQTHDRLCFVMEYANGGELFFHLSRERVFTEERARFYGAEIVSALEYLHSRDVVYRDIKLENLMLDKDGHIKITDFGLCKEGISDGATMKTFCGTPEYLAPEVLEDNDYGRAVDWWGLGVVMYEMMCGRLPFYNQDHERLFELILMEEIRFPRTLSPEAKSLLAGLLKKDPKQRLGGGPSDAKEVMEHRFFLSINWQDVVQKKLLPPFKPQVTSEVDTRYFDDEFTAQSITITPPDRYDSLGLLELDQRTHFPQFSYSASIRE
T1 sequence (P31749 whole entry): as the sequence (P31749 whole entry E17K) above, with K17E counted along it

As to `Nc1ncccc1-c1nc2ccc(-n3cccn3)nc2n1-c1ccc2c(c1)CC[C@@H]2NC(=O)c1ccc(C(F)F)nc1` [Compound 18, (S)—N-(5-(2-(2-aminopyridin-3-yl)-5-(1H-pyrazol-1-yl)-3H-imidazo[4,5-b]pyridin-3-yl)-2,3-dihydro-1H-inden-1-yl)-6-(difluoromethyl)nicotinamide], the IC50 at AKT1 WT (setting [2]) is 10.5 nM; in assay [1], 733 nM; at AKT1 E17K (setting [2]), 44.4 nM; at AKT2 (setting [2]), 55.5 nM.
The like results for `Cc1cncc(C(=O)N[C@H]2CCc3cc(-n4c(-c5cccnc5N)nc5ccc(-n6cccn6)nc54)ccc32)c1` [Compound 30, (S)—N-(5-(2-(2-aminopyridin-3-yl)-5-(1H-pyrazol-1-yl)-3H-imidazo[4,5-b]pyridin-3-yl)-2,3-dihydro-1H-inden-1-yl)-5-methylnicotinamide] were, in that order, 10.6 nM, 721 nM, 51.1 nM and 127 nM.
Taken in the same sequence, the figures for `COc1cc(C(=O)N[C@H]2CCc3cc(-n4c(-c5cccnc5N)nc5ccc(-n6cccn6)nc54)ccc32)ccn1` [Compound 25, (S)—N-(5-(2-(2-aminopyridin-3-yl)-5-(1H-pyrazol-1-yl)-3H-imidazo[4,5-b]pyridin-3-yl)-2,3-dihydro-1H-inden-1-yl)-2-methoxyisonicotinamide] were 2.11 nM, 576 nM, 7.43 nM and 9.84 nM.
The like results for `COc1nccc(C(=O)N[C@H]2CCc3cc(-n4c(-c5cccnc5N)nc5ccc(-n6cccn6)nc54)ccc32)c1Cl` [Compound 281] were, in that order, 3.63 nM, 950 nM, 75.5 nM and 18.3 nM.
As to `COc1cc(C(=O)N[C@H]2CCc3cc(-n4c(-c5ccccc5F)nc5ccc(-n6cccn6)nc54)ccc32)ccn1` [Compound 402], the IC50 on AKT1 WT (setting [3]) stood at 7.99 nM; in assay [1] it was 3000 nM; on AKT1 E17K (setting [3]) it was 53.3 nM; on AKT2 (setting [3]), 477 nM.
As for `Cn1ccc2c(C(=O)N[C@H]3CCc4cc(-n5c(-c6cccnc6N)nc6ccc(-n7cccn7)nc65)ccc43)[nH]cc2c1=O` [Compound 6, (S)—N-(5-(2-(2-aminopyridin-3-yl)-5-(1H-pyrazol-1-yl)-3H-imidazo[4,5-b]pyridin-3-yl)-2,3-dihydro-1H-inden-1-yl)-5-methyl-4-oxo-4,5-dihydro-2H-pyrrolo[3,4-c]pyridine-1-carboxamide], the IC50 on AKT1 WT (setting [2]) is 10.8 nM; in assay [1], 1660 nM; at AKT1 E17K (setting [2]), 179 nM; at AKT2 (setting [2]) it was 307 nM.
The like results for `Nc1ncccc1-c1nc2ccc(-n3nccn3)nc2n1-c1ccc2c(c1)CC[C@@H]2NC(=O)c1cccnc1` [Compound 58, (S)—N-(5-(2-(2-aminopyridin-3-yl)-5-(2H-1,2,3-triazol-2-yl)-3H-imidazo[4,5-b]pyridin-3-yl)-2,3-dihydro-1H-inden-1-yl)nicotinamide] were, in that order, 30.7 nM, 1900 nM, 157 nM and 2040 nM.
For the compound `C#CC1(OCC(=O)N[C@H]2CCc3cc(-n4c(-c5cccnc5N)nc5ccc(-n6cccn6)nc54)ccc32)COC1` [Compound 9, N—{(S)-5-[2-(2-amino-3-pyridyl)-5-(1-pyrazolyl)-3H-1,3,4-triazainden-3-yl]-1-indanyl}(3-ethynyl-3-oxetanyloxy)acetamide], the IC50 on AKT1 WT (setting [2]) is greater than 1000 nM; on AKT1 E17K (setting [2]), greater than 1000 nM; at AKT2 (setting [2]) it was 8890 nM.
Take `N#Cc1nccc(C(=O)N2CCC(N[C@H]3CCc4cc(-n5c(-c6cccnc6N)nc6ccc(-n7cccn7)nc65)ccc43)CC2)n1` [Compound 580]: the values for the IC50 on AKT1 WT (setting [3]), on AKT1 E17K (setting [3]) and on AKT2 (setting [3]) were 11.2 nM, 11.4 nM and 24.4 nM, respectively.
In the case of `CN1C(=O)CCC1CC(=O)N[C@H]1CCc2cc(-n3c(-c4cccnc4N)nc4ccc(-n5cccn5)nc43)ccc21` (mixture of isomers) [Compound 11, N—{(S)-5-[2-(2-amino-3-pyridyl)-5-(1-pyrazolyl)-3H-1,3,4-triazainden-3-yl]-1-indanyl}(1-methyl-5-oxo-2-pyrrolidinyl)acetamide], the IC50 at AKT1 WT (setting [2]) was greater than 1000 nM; on AKT1 E17K (setting [2]), greater than 1000 nM; at AKT2 (setting [2]) it was greater than 10000 nM.
Take `N#Cc1ncnc(N2CCC(N[C@H]3CCc4cc(-n5c(-c6cccnc6N)nc6ccc(-n7cccn7)nc65)ccc43)CC2)n1` [Compound 592]: the IC50 was found to be 4.32 nM at AKT1 WT (setting [3]), 5.5 nM on AKT1 E17K (setting [3]) and 11 nM on AKT2 (setting [3]).
On to `N#Cc1nccc(N2CC(N[C@H]3CCc4cc(-n5c(-c6cccnc6N)nc6ccc(-n7cccn7)nc65)ccc43)C2)n1` [Compound 581], for which the figures for the IC50 at AKT1 WT (setting [3]), on AKT1 E17K (setting [3]) and at AKT2 (setting [3]) were 6.51 nM, 20.8 nM and 38.4 nM, respectively.
Taken in the same sequence, the figures for `COc1cc(-c2ccc3nc(-c4cccnc4N)n(-c4ccc5c(c4)CC(F)[C@@H]5NC4CCN(C(=O)C5CC5)CC4)c3n2)ccn1` (stereo partly shown) [Compound 543] were 81 nM, 526 nM and 1210 nM.
Taken in the same sequence, the figures for `N#Cc1nc(N2CCC(N[C@H]3CCc4cc(-n5c(-c6cccnc6N)nc6ccc(-n7cccn7)nc65)ccc43)CC2)cs1` [Compound 593] were 4.56 nM, 22 nM and 23.7 nM.
The like results for `N#Cc1nc2c(c(N3CCC(N[C@H]4CCc5cc(-n6c(-c7cccnc7N)nc7ccc(-n8cccn8)nc76)ccc54)CC3)n1)CCC2` [Compound 603] were, in that order, 7.65 nM, 16.5 nM and 76.8 nM.
For `Cc1cnc(C#N)nc1N1CCC(N[C@H]2CCc3cc(-n4c(-c5cccnc5N)nc5ccc(-n6cccn6)nc54)ccc32)CC1` [Compound 585], the figures for the IC50 on AKT1 WT (setting [3]), on AKT1 E17K (setting [3]) and on AKT2 (setting [3]) were 4.77 nM, 8.23 nM and 10.7 nM, respectively.
In the case of `N#Cc1nccc(N2CCC(N[C@@H]3c4ccc(-n5c(-c6cccnc6N)nc6ccc(-n7cccn7)nc65)cc4CC3F)CC2)n1` (stereo partly shown) [Compound 579], the IC50 at AKT1 WT (setting [3]) was determined as 5.42 nM; on AKT1 E17K (setting [3]), 9.88 nM; on AKT2 (setting [3]) it was 26.6 nM.
For `Cc1cc(N2CCC(N[C@H]3CCc4cc(-n5c(-c6cccnc6N)nc6ccc(-n7cccn7)nc65)ccc43)CC2)nc(C#N)n1` [Cpd 584, (S)-4-(4-((5-(2-(2-aminopyridin-3-yl)-5-(1H-pyrazol-1-yl)-3H-imidazo[4,5-b]pyridin-3-yl)-2,3-dihydro-1H-inden-1-yl)amino)piperidin-1-yl)-6-methylpyrimidine-2-carbonitrile], the IC50 on AKT1 WT (setting [3]) came to 6.1 nM; at AKT1 E17K (setting [3]) it was 11.8 nM; on AKT2 (setting [3]) it was 62.5 nM.
Taken in the same sequence, the figures for `COc1cnc(C#N)nc1N1CCC(N[C@H]2CCc3cc(-n4c(-c5cccnc5N)nc5ccc(-n6cccn6)nc54)ccc32)CC1` [Cpd 586] were 6.98 nM, 17.3 nM and 43 nM.
For `CC(=O)N[C@H]1CCc2cc(-n3c(-c4cccnc4N)nc4ccc(-n5cccn5)nc43)ccc21` [Compound 1, (S)—N-(5-(2-(2-aminopyridin-3-yl)-5-(1H-pyrazol-1-yl)-3H-imidazo[4,5-b]pyridin-3-yl)-2,3-dihydro-1H-inden-1-yl)acetamide], the results for the IC50 at AKT1 WT (setting [2]), at AKT1 E17K (setting [2]) and at AKT2 (setting [2]) were greater than 737 nM, greater than 1000 nM and 4310 nM, respectively.
For the compound `CCc1cc(C(=O)N[C@H]2CCc3cc(-n4c(-c5cccnc5N)nc5ccc(-n6cccn6)nc54)ccc32)ccn1` [Compound 204], the IC50 at AKT1 WT (setting [2]) is 9.42 nM; at AKT2 (setting [2]), 53.1 nM.
In the case of `Nc1ncccc1-c1nc2ccc(-n3cccn3)nc2n1-c1ccc2c(c1)CC[C@@H]2NC(=O)c1ccc(F)cc1` [Compound 310], the IC50 came out at 22.1 nM on AKT1 WT (setting [2]) and 351 nM at AKT2 (setting [2]).
Taken in the same sequence, the figures for `Nc1ncccc1-c1nc2ccc(-n3cccn3)nc2n1-c1ccc2c(c1)CC[C@@H]2NC(=O)c1cccnc1C1CC1` [Compound 103] were 25.2 nM and 316 nM.
Take `Fc1ccccc1-c1nc2ccc(-n3cccn3)nc2n1-c1ccc2c(c1)CC[C@@H]2n1cnnc1` [Compound 529]: the IC50 amounted to 8.2 nM on AKT1 WT (setting [3]) and 621 nM on AKT2 (setting [3]).
Consider `Nc1ncccc1-c1nc2ccc(-n3cccn3)nc2n1-c1ccc2c(c1)CC[C@@H]2NC1CCN(C(=O)[C@H]2C[C@H]2F)CC1` [Compound 478], for which the IC50 on AKT1 WT (setting [3]) was determined as 126 nM; on AKT2 (setting [3]), 3170 nM.
The like results for `Nc1ncccc1-c1nc2ccc(-n3cccn3)nc2n1-c1ccc2c(c1)CC[C@@H]2NC1CCc2nc(C(F)F)sc21` (stereo partly shown) [Compound 601] were, in that order, 102 nM and 2500 nM.

Values taken from patent US12624034B2, “Non-covalent modifiers of AKT1 and uses thereof” (Terremoto Biosciences, Inc., priority 2023, dated 2026).
